{"source": "patent US4603134A", "about": "“Piperazine derivative and pharmaceutical composition containing the same” (Ferrer International, S.A., priority 1984, dated 1986)", "key": {"[1]": {"test": "Activity on the blood stream (vasoactive, antiarrhythmic, hypotensor)", "conditions": "no test described"}, "[2]": {"test_system": "isolate of guinea-pig ileum", "test": "Anti-histamine activity in an isolate of guinea-pig ileum, suspended in a Tyrode bath at 32°-35° C.", "conditions": "for pIC50: Cavia porcellus, isolated guinea-pig ileum, Tyrode bath, 32°-35° C., read-out: anti-histamine activity, ED50", "description": "The anti-histamine activity was tested in an isolate of guinea-pig ileum, suspended in a Tyrode bath at 32°-35° C. according to a protocol described by R. A. Turner (Screening Methods in Pharmacology, Academic Press, 1965, p. 43)."}, "[3]": {"test_system": "isolate of guinea-pig ileum", "conditions": "background statement on the non-fluorine analog; cited from earlier work"}}, "note": "pIC50: −log10 of the molar value."}
{"molecule": "Fc1ccc(C(c2ccc(F)cc2)N2CCN(CCCC3(c4ccccc4)OCCO3)CC2)cc1", "note": "[Example 1, 1-(4,4'-difluorobenzhydryl)-4-(2-phenyl-1,3-dioxolane-2-propyl)piperazine]", "values": [{"measurement": "activity on the blood stream (in words)", "setting": "[1]", "result": "strong activity on the blood stream"}, {"measurement": "pIC50", "setting": "[2]", "result": 6.82}, {"measurement": "antihistaminic effect compared with non-fluorine analog (in words)", "setting": "[2]; versus non-fluorine analog (Spanish Pat. No. 514 340)", "result": "higher than that of its non-fluorine analog"}]}
{"molecule": "c1ccc(C(c2ccccc2)N2CCN(CCCC3(c4ccccc4)OCCO3)CC2)cc1", "note": "[Spanish Pat. 514 340, reference compound]", "values": [{"measurement": "anti-histaminic effect (in words)", "setting": "[3]", "result": "unsatisfactory"}, {"measurement": "pIC50", "setting": "[2]", "result": 6.46}]}
